These results are taken from ChEMBL document CHEMBL1134432 (Bioorg Med Chem Lett, 2001).

The Ki is a dissociation constant, usually derived from enzyme kinetics or from competition with a known ligand. High values mean lower affinity, low ones higher affinity. By ED50 is commonly meant the midpoint of the dose-response relation. Low values mean an effect at a small dose, high ones a need for a large dose.

For assay [1], the target named is T1, 5-hydroxytryptamine receptor 1A (Homo sapiens, UniProt P08908).
T1 sequence (P08908 whole entry): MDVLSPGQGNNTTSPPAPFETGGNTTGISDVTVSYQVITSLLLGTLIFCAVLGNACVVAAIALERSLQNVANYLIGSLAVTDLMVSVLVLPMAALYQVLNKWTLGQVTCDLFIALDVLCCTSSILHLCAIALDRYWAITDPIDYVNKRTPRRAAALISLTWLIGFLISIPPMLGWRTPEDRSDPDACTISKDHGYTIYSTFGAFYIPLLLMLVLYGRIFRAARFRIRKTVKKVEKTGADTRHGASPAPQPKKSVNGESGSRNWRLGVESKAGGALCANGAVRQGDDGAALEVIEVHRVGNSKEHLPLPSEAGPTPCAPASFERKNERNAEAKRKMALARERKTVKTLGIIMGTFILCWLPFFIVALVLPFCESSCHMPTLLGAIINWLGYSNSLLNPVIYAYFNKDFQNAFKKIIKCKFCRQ
The experiment in a line: Binding affinity towards human 5-hydroxytryptamine 1A receptor was determined using [3H]8-OH-DPAT-as radioligand.

In assay [2] the target is 5-hydroxytryptamine receptor 2A (Rattus norvegicus, UniProt P14842). Nature of the assay: Binding affinity towards rat 5-hydroxytryptamine 2A receptor was determined using [125I]- DOI as radioligand.
Assay [3] has as its target T2, 5-hydroxytryptamine receptor 2C (Rattus norvegicus, UniProt P08909).
T2 sequence (P08909 whole entry): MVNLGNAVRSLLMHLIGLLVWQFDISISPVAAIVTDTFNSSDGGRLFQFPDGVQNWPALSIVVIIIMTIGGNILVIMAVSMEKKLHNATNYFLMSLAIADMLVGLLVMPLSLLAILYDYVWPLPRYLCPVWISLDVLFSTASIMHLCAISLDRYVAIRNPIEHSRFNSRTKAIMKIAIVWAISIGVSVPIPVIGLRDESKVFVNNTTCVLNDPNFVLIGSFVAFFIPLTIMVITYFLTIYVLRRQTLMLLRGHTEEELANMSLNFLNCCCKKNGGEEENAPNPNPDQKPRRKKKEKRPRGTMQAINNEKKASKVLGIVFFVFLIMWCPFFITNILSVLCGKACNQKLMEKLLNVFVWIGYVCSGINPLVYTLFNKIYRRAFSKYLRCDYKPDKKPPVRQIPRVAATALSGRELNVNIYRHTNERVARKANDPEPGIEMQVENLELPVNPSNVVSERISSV
The experiment in a line: Binding affinity towards rat 5-hydroxytryptamine 2C receptor was determined using [125I]- DOI as radioligand.

Assay [4] concerns Rattus norvegicus. Nature of the assay: Percentage of animals failed to emit 50 responses within 5 min at 0.063 umol/kg in LY-293284-trained rats. The assay is classed as functional.
In assay [5] the test system is Rattus norvegicus. The experiment in a line: Percentage of animals failed to emit 50 responses within 5 min at 0.125 umol/kg in DOI-trained rats. The assay is classed as functional.
Assay [6] relates to Rattus norvegicus. The experiment in a line: Percentage of animals failed to emit 50 responses within 5 min at 0.125 umol/kg in LSD-trained rats. The assay is classed as functional.
Assay [7] concerns Rattus norvegicus. The experiment in a line: Percentage of animals failed to emit 50 responses within 5 min at 0.125 umol/kg in LY-293284-trained rats. The assay is classed as functional.
For assay [8], the system named is Rattus norvegicus. The experiment in a line: Percentage of animals failed to emit 50 responses within 5 min at 0.25 umol/kg in DOI-trained rats. It counts as functional.
The test system of assay [9] is Rattus norvegicus. The experiment in a line: Percentage of animals failed to emit 50 responses within 5 min at 0.25 umol/kg in LSD-trained rats. The assay is classed as functional.
For assay [10], the system named is Rattus norvegicus. Nature of the assay: Percentage of animals failed to emit 50 responses within 5 min at 0.25 umol/kg in LY-293284-trained rats. The assay is classed as functional.
The test system of assay [11] is Rattus norvegicus. The experiment in a line: Percentage of animals failed to emit 50 responses within 5 min at 0.5 umol/kg in DOI-trained rats. It counts as functional.
Assay [12] relates to Rattus norvegicus. The experiment in a line: Percentage of animals failed to emit 50 responses within 5 min at 0.5 umol/kg in LSD-trained rats. It counts as functional.
Assay [13] concerns Rattus norvegicus. The experiment in a line: Percentage of animals failed to emit 50 responses within 5 min at 0.5 umol/kg in LY-293284-trained rats. The assay is classed as functional.
The subject of assay [14] is Rattus norvegicus. Nature of the assay: Percentage of animals failed to emit 50 responses within 5 min at 1 umol/kg in LSD-trained rats. It counts as functional.
Assay [15] has as its system Rattus norvegicus. The experiment in a line: Percentage of animals failed to emit 50 responses within 5 min at 1 umol/kg in LY-293284-trained rats. The assay is classed as functional.
For assay [16], the system named is Rattus norvegicus. The experiment in a line: Percentage of animals tested that selected the training compound appropriate level at 0.063 umol/kg in LY-293284-trained rats. The assay is classed as functional.
In assay [17] the test system is Rattus norvegicus. Nature of the assay: Percentage of animals tested that selected the training compound appropriate level at 0.125 umol/kg in DOI-trained rats. The assay is classed as functional.
The test system of assay [18] is Rattus norvegicus. The experiment in a line: Percentage of animals tested that selected the training compound appropriate level at 0.125 umol/kg in LSD-trained rats. It counts as functional.
The test system of assay [19] is Rattus norvegicus. Nature of the assay: Percentage of animals tested that selected the training compound appropriate level at 0.125 umol/kg in LY-293284-trained rats. The assay is classed as functional.
Assay [20] deals with Rattus norvegicus. The experiment in a line: Percentage of animals tested that selected the training compound appropriate level at 0.25 umol/kg in DOI-trained rats. It counts as functional.
The test system of assay [21] is Rattus norvegicus. The experiment in a line: Percentage of animals tested that selected the training compound appropriate level at 0.25 umol/kg in LSD-trained rats. It counts as functional.
The test system of assay [22] is Rattus norvegicus. The experiment in a line: Percentage of animals tested that selected the training compound appropriate level at 0.25 umol/kg in LY-293284-trained rats. The assay is classed as functional.
Assay [23] has as its system Rattus norvegicus. The experiment in a line: Percentage of animals tested that selected the training compound appropriate level at 0.5 umol/kg in DOI-trained rats. It counts as functional.
Assay [24] deals with Rattus norvegicus. The experiment in a line: Percentage of animals tested that selected the training compound appropriate level at 0.5 umol/kg in LSD-trained rats. The assay is classed as functional.
Assay [25] deals with Rattus norvegicus. The experiment in a line: Percentage of animals tested that selected the training compound appropriate level at 1 umol/kg in LSD-trained rats. The assay is classed as functional.
Assay [26] deals with Rattus norvegicus. Nature of the assay: Percentage of animals tested that selected the training compound appropriate level at 1 umol/kg in LY-293284-trained rats. It counts as functional.
Assay [27] concerns Rattus norvegicus. Nature of the assay: Percentage of animals tested that selected the training compound appropriate level at 0.5 umol/kg in LY-293284-trained rats. It counts as functional.
The species named for assay [28] is Rattus norvegicus. Nature of the assay: Effective concentration required to determined hallucinogen-like activity in LSD-trained rats. It counts as functional.

5-hydroxytryptamine receptor 2A, sequence (P14842 whole entry): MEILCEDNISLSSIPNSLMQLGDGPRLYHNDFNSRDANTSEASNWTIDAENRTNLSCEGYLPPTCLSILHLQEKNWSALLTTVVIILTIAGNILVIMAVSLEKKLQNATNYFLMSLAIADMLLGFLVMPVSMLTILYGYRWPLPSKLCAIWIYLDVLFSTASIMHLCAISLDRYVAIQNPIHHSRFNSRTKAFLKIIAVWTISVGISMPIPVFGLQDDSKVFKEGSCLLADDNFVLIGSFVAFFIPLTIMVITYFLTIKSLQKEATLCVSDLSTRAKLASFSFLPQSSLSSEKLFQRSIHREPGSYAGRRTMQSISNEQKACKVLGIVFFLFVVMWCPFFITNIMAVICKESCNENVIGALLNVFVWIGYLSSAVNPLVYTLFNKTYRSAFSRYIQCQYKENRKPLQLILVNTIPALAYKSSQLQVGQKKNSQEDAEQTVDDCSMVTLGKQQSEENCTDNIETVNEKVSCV

Regarding `COc1ccc2[nH]cc(CCN(C)C)c2c1F`, in assay [1], the Ki turned out to be 0.23 nM.
Consider `COc1ccc2[nH]cc(CCN3CCCC3)c2c1F`, for which the Ki in [1] was determined as 0.12 nM; in assay [2], 130 nM; in assay [3], 140 nM. For the same compound, the D in the assay with Rattus norvegicus [4] amounted to 0%; in the assay on Rattus norvegicus [5], 22%; in the assay on Rattus norvegicus [6], 10%; in the assay with Rattus norvegicus [7], 10%; in the assay with Rattus norvegicus [8] it was 30%; in the assay with Rattus norvegicus [9], 53%. The D in the assay on Rattus norvegicus [10] was 12.5%; in the assay with Rattus norvegicus [11], 50%; with Rattus norvegicus [12] it was 60%; in the assay on Rattus norvegicus [13] it was 66.6%; with Rattus norvegicus [14] it was 78%; in the assay with Rattus norvegicus [15], 90%. Moreover, the SDL with Rattus norvegicus [16] came out at 25%; in the assay with Rattus norvegicus [17], 0%; with Rattus norvegicus [18] it was 11%; with Rattus norvegicus [19] it was 66.6%; in the assay with Rattus norvegicus [20], 29%; in the assay with Rattus norvegicus [21], 57%. In addition, the SDL in the assay on Rattus norvegicus [22] is 100%; with Rattus norvegicus [23] it was 50%; in the assay with Rattus norvegicus [24], 75%; in the assay with Rattus norvegicus [25], 67%; with Rattus norvegicus [26] it was 100%; in the assay on Rattus norvegicus [27], 100%.
Compound `COc1cc(CC(C)N)c(OC)cc1I` (stereo unspecified) yielded a 50% effective dose (ED50) in the assay filed under Rattus norvegicus [28] of 0.29 µmol/kg.
Same read-out and setting: the same measure for `CCCN(CCC)C1CCc2cccc(O)c2C1` (stereo unspecified) [8-OH-DPAT]: 0.099 µmol/kg; for `CCN(CC)C(=O)[C@@H]1C=C2c3cccc4[nH]cc(c34)C[C@H]2N(C)C1` [LYSERGIDE]: 0.026 µmol/kg.
